Measured values: PubChem BioAssay AID274 (DTP/NCI, 2004)
Toxic doses and inconclusive results are not listed.

System: BDF1 mice, Lewis lung carcinoma iv, survival T/C
Assay: NCI In Vivo Anticancer Drug Screen. Data for tumor model Lewis Lung Carcinoma (intravenous) in B6D2F1 (BDF1) mice
Conditions: endpoint: median survival time, higher = longer survival
Procedure: The antitumor activity of compounds was measured in mice bearing transplantable tumors. Survival or tumor size were measured and the results are expressed as the measurement made in the treated group (T) divided by the measurement made in the vehicle treated control group (C). The tumor model used in this assay is Lewis Lung Carcinoma (intravenous) in B6D2F1 (BDF1) mice

[1] = dose: 12.5 mg/kg/injection, schedule: Q01DX009 (ip), vehicle: saline with Tween-80
[2] = dose: 25.0 mg/kg/injection, schedule: Q01DX009 (ip), vehicle: saline with Tween-80
[3] = dose: 50.0 mg/kg/injection, schedule: Q01DX009 (ip), vehicle: saline with Tween-80
[4] = dose: 100.0 mg/kg/injection, schedule: Q01DX009 (ip), vehicle: saline with Tween-80
[5] = dose: 200.0 mg/kg/injection, schedule: Q01DX009 (ip), vehicle: saline with Tween-80
[6] = dose: 400.0 mg/kg/injection, schedule: Q01DX009 (ip), vehicle: saline with Tween-80
[7] = dose: 12.5 mg/kg/injection, schedule: Q01DX009 (ip), vehicle: saline
[8] = dose: 25.0 mg/kg/injection, schedule: Q01DX009 (ip), vehicle: saline
[9] = dose: 50.0 mg/kg/injection, schedule: Q01DX009 (ip), vehicle: saline
[10] = dose: 100.0 mg/kg/injection, schedule: Q01DX009 (ip), vehicle: saline
[11] = dose: 200.0 mg/kg/injection, schedule: Q01DX009 (ip), vehicle: saline
[12] = dose: 400.0 mg/kg/injection, schedule: Q01DX009 (ip), vehicle: saline
[13] = dose: 1.56 mg/kg/injection, schedule: Q01DX009 (ip), vehicle: saline with Tween-80
[14] = dose: 6.25 mg/kg/injection, schedule: Q01DX009 (ip), vehicle: saline with Tween-80
[15] = dose: 3.13 mg/kg/injection, schedule: Q01DX009 (ip), vehicle: saline with Tween-80

COc1cc(Cl)ccc1C was tested, and the T/C [1] was 111 % of control, the T/C [2] was 107 % of control and the T/C [3] was 97 % of control. The T/C [4] was 108 % of control, the T/C [5] was 102 % of control and the T/C [6] was 98 % of control.

For OCC1(CO)COC2(CCCCC2)N1, the T/C [7] was 102 % of control, the T/C [8] was 100 % of control and the T/C [9] was 102 % of control. For the same compound, the T/C [10] was 100 % of control, the T/C [11] was 101 % of control and the T/C [12] was 103 % of control.

In the case of CCCCOCN(COCCCC)C(C)Cc1ccccc1 (centres undefined), the T/C [1] is reported as 102 % of control, the T/C [2] is reported as 96 % of control and the T/C [3] is reported as 95 % of control. The T/C [4] was 100 % of control and the T/C [5] was 101 % of control.

Nc1ccn(C2OC(CO)C(O)C2O)c(=O)n1 (centres undefined) was tested, and the T/C (dose: 6.25 mg/kg/injection, schedule: Q01DX009 (ip), vehicle: saline) was 98 % of control, the T/C (dose: 30.0 mg/kg/injection, schedule: Q01DX006 (ip), vehicle: saline) was 281 % of control and the T/C (dose: 60.0 mg/kg/injection, schedule: Q01DX009 (ip), vehicle: saline) was 234 % of control. For the same compound, the T/C (dose: 980.0 mg/kg/injection, schedule: Q04DX003 (ip), vehicle: saline) was 121 % of control and the T/C (dose: 2000.0 mg/kg/injection, schedule: Q04DX003 (ip), vehicle: saline) was 93 % of control.

For COc1ccc2[nH]c3ccc4cc[n+](CCN5CCC(C6CCN(CC[n+]7ccc8ccc9[nH]c%10ccc(OC)cc%10c9c8c7)CC6)CC5)cc4c3c2c1, the T/C (dose: 12.5 mg/kg/injection, schedule: Q01DX009 (ip), vehicle: Klucel (hydroxypropylcellulose) (HPC)) was 98 % of control and the T/C (dose: 25.0 mg/kg/injection, schedule: Q01DX009 (ip), vehicle: Klucel (hydroxypropylcellulose) (HPC)) was 114 % of control.

In the case of NC1=NC(=O)N2CC12 (centres undefined), the T/C [7] is reported as 107 % of control, the T/C [8] is reported as 110 % of control and the T/C [9] is reported as 105 % of control. For the same compound, the T/C [10] was 105 % of control and the T/C [11] was 109 % of control.

With Cc1ccc[c]([Hg][Cl])c1N=Nc1ccccc1 the T/C (dose: 0.78 mg/kg/injection, schedule: Q01DX009 (ip), vehicle: saline with Tween-80) was 100 % of control, the T/C [13] was 105 % of control and the T/C (dose: 3.12 mg/kg/injection, schedule: Q01DX009 (ip), vehicle: saline with Tween-80) was 90 % of control. For the same compound, the T/C [14] was 115 % of control and the T/C [1] was 94 % of control.

For c1ccc([I+]c2ccccc2)cc1, the T/C (dose: 1.0 mg/kg/injection, schedule: Q01DX009 (ip), vehicle: saline) was 98 % of control, the T/C (dose: 2.0 mg/kg/injection, schedule: Q01DX009 (ip), vehicle: saline) was 100 % of control and the T/C (dose: 4.0 mg/kg/injection, schedule: Q01DX009 (ip), vehicle: saline) was 109 % of control.

In the case of OCCN1CCN(CC/C=C2/c3ccccc3Sc3ccc(C(F)(F)F)cc32)CC1, the T/C [13] is reported as 98 % of control, the T/C [15] is reported as 97 % of control and the T/C [1] is reported as 97 % of control.

In the case of CC1CN1C(=O)NCCCCCCNC(=O)N1CC1C (centres undefined), the T/C (dose: 2.5 mg/kg/injection, schedule: Q01DX009 (ip), vehicle: saline + alcohol) is reported as 111 % of control.

With COc1ccc(C(=O)c2no[n+]([O-])c2C(=O)c2ccc(OC)cc2)cc1 the T/C [1] was 104 % of control, the T/C [2] was 102 % of control and the T/C [3] was 95 % of control. For the same compound, the T/C [4] was 98 % of control, the T/C [5] was 100 % of control and the T/C [6] was 111 % of control.

For COC(=O)Nc1cccc(-c2nc3ccc(NC(=O)OC)cc3c(=O)n2-c2ccccc2)c1, the T/C (dose: 8.0 mg/kg/injection, schedule: Q01DX009 (ip), vehicle: Klucel (hydroxypropylcellulose) (HPC)) was 95 % of control, the T/C (dose: 8.0 mg/kg/injection, schedule: Q01DX009 (ip), vehicle: saline) was 92 % of control and the T/C (dose: 16.0 mg/kg/injection, schedule: Q01DX009 (ip), vehicle: Klucel (hydroxypropylcellulose) (HPC)) was 92 % of control. For the same compound, the T/C (dose: 16.0 mg/kg/injection, schedule: Q01DX009 (ip), vehicle: saline) was 97 % of control, the T/C (dose: 32.0 mg/kg/injection, schedule: Q01DX009 (ip), vehicle: Klucel (hydroxypropylcellulose) (HPC)) was 99 % of control and the T/C (dose: 32.0 mg/kg/injection, schedule: Q01DX009 (ip), vehicle: saline) was 109 % of control. The T/C (dose: 64.0 mg/kg/injection, schedule: Q01DX009 (ip), vehicle: Klucel (hydroxypropylcellulose) (HPC)) was 109 % of control, the T/C (dose: 64.0 mg/kg/injection, schedule: Q01DX009 (ip), vehicle: saline) was 108 % of control and the T/C (dose: 128.0 mg/kg/injection, schedule: Q01DX009 (ip), vehicle: saline) was 115 % of control.

For O=C(NO)c1ccc(O)c(O)c1, the T/C (dose: 25.0 mg/kg/injection, schedule: Q01DX009 (ip), vehicle: water) was 100 % of control, the T/C (dose: 50.0 mg/kg/injection, schedule: Q01DX009 (ip), vehicle: water) was 100 % of control and the T/C (dose: 100.0 mg/kg/injection, schedule: Q01DX009 (ip), vehicle: water) was 100 % of control. The T/C (dose: 200.0 mg/kg/injection, schedule: Q01DX009 (ip), vehicle: water) was 108 % of control, the T/C (dose: 300.0 mg/kg/injection, schedule: Q01DX009 (ip), vehicle: suspension in saline) was 117 % of control and the T/C (dose: 400.0 mg/kg/injection, schedule: Q01DX009 (ip), vehicle: suspension in saline) was 114 % of control. For the same compound, the T/C (dose: 500.0 mg/kg/injection, schedule: Q01DX009 (ip), vehicle: suspension in saline) was 122 % of control.

With CCN1CSC(=S)N(CC)C1 the T/C [2] was 103 % of control, the T/C [3] was 101 % of control and the T/C [4] was 99 % of control.

With OCCOCC(F)(F)F the T/C [14] was 98 % of control, the T/C [1] was 86 % of control and the T/C [2] was 106 % of control. For the same compound, the T/C [8] was 89 % of control, the T/C [3] was 90 % of control and the T/C [4] was 102 % of control. For the same compound, the T/C [5] was 103 % of control.

CCOC(=O)C(N)CSC(=O)NC (centres undefined) was tested, and the T/C [8] was 105 % of control, the T/C [9] was 98 % of control and the T/C [10] was 96 % of control. For the same compound, the T/C [11] was 96 % of control and the T/C [12] was 113 % of control.

CC(C)=CC(=O)OC1C2C(C)=CC(=O)C(O)C2(C)C2C3(O)OCC24C(CC(=O)OC14)C(C)C3O (centres undefined) was tested, and the T/C (dose: 0.25 mg/kg/injection, schedule: Q01DX009 (ip), vehicle: distilled water + Tween-80) was 92 % of control, the T/C (dose: 0.5 mg/kg/injection, schedule: Q01DX009 (ip), vehicle: distilled water + Tween-80) was 90 % of control and the T/C (dose: 1.0 mg/kg/injection, schedule: Q01DX009 (ip), vehicle: distilled water + Tween-80) was 106 % of control. The T/C (dose: 2.0 mg/kg/injection, schedule: Q01DX009 (ip), vehicle: distilled water + Tween-80) was 103 % of control.

With COC(=O)c1cc2cc3c(c(O)c2c(=O)o1)OC1(Cc2c(O)c4c(c(O)c2O1)C(=O)C(OC)CC4=O)CC3O (centres undefined) the T/C [15] was 102 % of control, the T/C [14] was 110 % of control and the T/C [1] was 122 % of control. For the same compound, the T/C [2] was 120 % of control.

In the case of Cc1ccc(N=NN(C)C)cc1, the T/C [2] is reported as 100 % of control, the T/C [3] is reported as 105 % of control and the T/C [4] is reported as 105 % of control.

For CN(C)CC(=O)c1ccc(O)c(O)c1, the T/C [10] was 99 % of control, the T/C [11] was 91 % of control and the T/C [12] was 90 % of control.

For Nc1nc(N)c2c(Cl)c(CNc3ccc(Cl)c(Cl)c3)ccc2n1, the T/C [15] was 102 % of control, the T/C [14] was 99 % of control and the T/C [1] was 108 % of control. For the same compound, the T/C [2] was 111 % of control and the T/C [3] was 98 % of control.

With CC[C@]1(O)C[C@H]2CN(CCc3c([nH]c4ccccc34)[C@@](C(=O)OC)(c3cc4c(cc3OC)N(C=O)[C@H]3[C@@](O)(C(=O)OC)[C@H](OC(C)=O)[C@]5(CC)C=CCN6CC[C@]43[C@@H]65)C2)C1 the T/C (dose: 0.36 mg/kg/injection, schedule: Q04DX003 (ip), vehicle: saline) was 98 % of control, the T/C (dose: 0.6 mg/kg/injection, schedule: Q04DX003 (ip), vehicle: saline) was 105 % of control and the T/C (dose: 1.0 mg/kg/injection, schedule: Q04DX003 (ip), vehicle: saline) was 120 % of control. The T/C (dose: 130.0 micrograms/kg/injection, schedule: Q01DX009 (ip), vehicle: saline) was 106 % of control and the T/C (dose: 216.0 micrograms/kg/injection, schedule: Q01DX009 (ip), vehicle: saline) was 111 % of control.

In the case of C1CN1c1nc(N2CC2)nc(N2CC2)n1, the T/C (dose: 0.06 mg/kg/injection, schedule: Q01DX009 (ip), vehicle: suspension in saline) is reported as 105 % of control, the T/C (dose: 0.12 mg/kg/injection, schedule: Q01DX009 (ip), vehicle: suspension in saline) is reported as 101 % of control and the T/C (dose: 0.25 mg/kg/injection, schedule: Q01DX009 (ip), vehicle: suspension in saline) is reported as 112 % of control.

For CCN(CC)CCOC(=O)Cc1cccc2c(=O)cc(-c3ccccc3)oc12, the T/C [7] was 109 % of control, the T/C [8] was 105 % of control and the T/C [9] was 105 % of control. For the same compound, the T/C [10] was 101 % of control.
